The numbers were not newly measured in patent US20220175800A1, “DISPERSIBLE TABLET COMPOSITION” (PTC THERAPEUTICS INC., priority 2019, published 2022), which cites them from elsewhere.

For the compound `CC(=O)OCC(=O)[C@@]12N=C(C)O[C@@H]1C[C@H]1[C@@H]3CCC4=CC(=O)C=C[C@]4(C)[C@H]3[C@@H](O)C[C@@]12C` [Deflazacort, (11β,16β)-21-(acetyloxy)11-hydroxy-2′-methyl-5′H-pregna-1,4-dieno[17,16-d]oxazole-3,20-dione], the Solubility in water result was “poorly soluble in water”.
